Consider 13 molecules from patent publication US20090203050A1 (The Regents of the University of California, priority 2005, published 2009).

Entries after “also recorded” stand apart in the source; their conditions may differ.

In one series the test system is Ramos-RR1. Nature of the series: DNA fragmentation (PI) apoptosis assay, Ramos-RR1. The note with it: for resistance of clone compared with wt cells / resistance of clone compared with wt cells, value in parentheses / apoptosis, drug alone: 18 h; for apoptosis, drug after DHMEQ pre-treatment: DHMEQ 20 μg/ml 2 h, then highest drug concentration 18 h; for apoptosis, drug alone: highest drug concentration. Here is the method: (§1) Percentage of apoptotic cells was determined by evaluation of propidium iodide (PI) stained preparations of cells using an EpicXL flow-cytometer. Cellular debris was excluded from analysis by raising the forward scatter threshold, and DNA content of the intact nuclei was recorded on a logarithmic scale (Nicoletti, I. et al., J. Immunol. Methods, 139:271-9 (1991)). Percent apoptosis is represented as percentage of hypodiploid cells accumulated at sub-G0 phase of cell cycle.
(§2) Cells were left either untreated or pre-treated with DHMEQ (36), bortezomib (Goy, A. et al., Clin. Lymphoma, 4:230-7 (2004)) and PD098059 (Alessi, D. et al., J. Biol. Chem., 270:27489-94 (1995)). Escalating concentrations of various drugs were then added and the percentage of apoptosis was measured.

Another series has as its system RR clones. The experiment in a line: DNA fragmentation apoptosis assay, RR clones (pooled statements). The following applies: drugs e.g. Paclitaxel, Vincristine, VP-16, CDDP, Adriamycin. The format is cell-based, human. As for the experimental part:
Thus, we examined if such sensitizing agents can reverse the resistance in the RR clones.
as §1, §2

Another series deals with Daudi wt cells. The experiment in a line: DNA fragmentation (PI) apoptosis assay, Daudi wt. It counts as cell-based, human.
Another series relates to Ramos wt cells. Nature of the series: DNA fragmentation (PI) apoptosis assay, Ramos wt. The format is cell-based, human.
The subject of the next series is Daudi-RR1. The experiment in a line: DNA fragmentation (PI) apoptosis assay, Daudi-RR1. The note with it: for resistance of clone compared with wt cells / resistance of clone compared with wt cells, value in parentheses / apoptosis, drug alone: 18 h; for apoptosis, drug after DHMEQ pre-treatment: DHMEQ 20 μg/ml 2 h, then highest drug concentration 18 h; for apoptosis, drug alone: highest drug concentration. Here is the method: as §1, §2

The test system of series [1] is 2F7, Ramos and Daudi wild type and RR clones. The experiment in a line: TRAIL-mediated apoptosis in B-NHL cell lines and RR clones (DNA fragmentation). The format is cell-based, human. The following applies: for sensitization to TRAIL-induced apoptosis: inhibitor pretreatment 2 h, then TRAIL 18 h, rituximab-sensitive and -resistant cells. The text has this:
Patients with B-NHL respond initially to conventional chemotherapy and/or to immunotherapy with rituximab (alone or in combination with chemotherapy). However, patients develop resistance to these modalities and novel approaches are needed. TRAIL is a cytotoxic molecule that exerts selective anti-tumor cytotoxic activity with minimal toxicity to normal tissues. Further, TRAIL or agonist monoclonal antibody (mAb) to TRAIL receptors, DR4 and DR5, are currently being tested clinically. The present study investigated the sensitivity of B-NHL cell lines to TRAIL-mediated apoptosis using the AIDS-related NHL (ARL) B-cell line, 2F7, and the B-NHL cell lines, Ramos and Daudi. Also, to recapitulate various aspects of acquired rituximab-resistance, we have generated rituximab-resistant (RR) clones from the parental wild type (wt) cells. […] We then examined means to reverse […] resistance. We and others have reported that inhibition of NFκB activity can sensitize TRAIL-resistant tumor cells to TRAIL-induced apoptosis. […] Both the rituximab-sensitive and rituximab-resistant tumor cells were sensitized by these inhibitors, though higher concentrations were required for sensitization of the RR clones. […] Based on the findings, patients with resistant B-NHL can be treated with combination of TRAIL/anti-DR4 or DR5 mAb and NFκB inhibitors. Alternatively, these patients can be treated with agents that up-regulate TRAIL expression on host effectors (e.g., T cells, NK cells) in combination with NFκB inhibitors.

The test system of the next series is 2F7RR1 clone. The experiment in a line: Chemotherapeutic drug-induced apoptosis in 2F7RR1. The format is cell-based. The text has this:
(§3) Accordingly, we examined whether inhibition of Bcl-2 in 2F7RR1 can reverse chemoresistance. Since Bcl-2 is under the transcriptional regulation of NFκB, we examined the effect of the NF-κB inhibitors Bortezomib and DHMEQ (Kikuchi, et al., Cancer Research, 63:107 (2003)).
(§4) The mechanism by which B-NHL patients resist treatment is not known. […] We examined the effect of various chemical inhibitors of this signaling pathway on chemosensitization.

In series [2] the test system is p38MAPK/NF-κB/YY1/STAT3 signaling pathways, Bcl-2. The experiment in a line: Molecular analysis of signaling in 2F7RR1. The following applies: 2F7-RR1. It counts as cell-based.
From the text: as §3, §4

A further series deals with Ramos and Daudi. The note with it: ERK1/2 pathway inhibitors; cited from earlier work.
The mark [3] stands for this setting: Ramos-RR1, 2MAM-A3 35 μg/ml 7 h, paclitaxel 10 nM 18 h.
[4] abbreviates: wt Ramos, 2MAM-A3 15 μg/ml 7 h, paclitaxel 10 nM 18 h.

Consider `CCCC[C@H]1C(=O)O[C@H](C)[C@H](NC(=O)c2cccc(NC=O)c2OC)C(=O)O[C@@H](C)[C@@H]1OC(=O)CC(C)C` [2MAM-A3, 2-methoxyantimycin-A3], for which the “apoptosis, paclitaxel after 2MAM-A3 pre-treatment” value with Ramos-RR1 (setting [3]) came out at 39.7±2.4%; in the series on Ramos wt cells (setting [4]), 26.7±2.2%. Moreover, the “augmentation of paclitaxel cytotoxicity” value in the series on Ramos-RR1 (setting [3]) is 4.71 folds; in the series with Daudi wt cells (2MAM-A3 15 μg/ml 7 h, paclitaxel 10 nM 18 h) it was 1.98 fold; in the series on Ramos wt cells (setting [4]) it was 1.96 folds; with Daudi-RR1 (Daudi-RR1, 2MAM-A3 35 μg/ml 7 h, paclitaxel 10 nM 18 h) it was 3.2 folds. For the same molecule, in the series with RR clones, the “sensitization of RR clones to various chemotherapeutic drugs” value (“sensitization of RR clones” for short) is “sensitized”.
For `COc1cccc2c1C(=O)c1c(O)c3c(c(O)c1C2=O)C[C@@](O)(C(=O)CO)C[C@@H]3O[C@H]1C[C@H](N)[C@H](O)[C@H](C)O1` [ADR], in the series with Ramos-RR1 (Ramos-RR1), the “resistance of clone compared with wt cells” value came out at 2.3 folds; the “resistance of clone compared with wt cells, value in parentheses” value was determined as 158%; the “apoptosis, drug after DHMEQ pre-treatment” value is listed as 32.4±2.9%; the “apoptosis, drug alone” value amounted to 14.3±3.3%. In the series with Daudi-RR1 (Daudi-RR1), the “resistance of clone compared with wt cells” value was 1.94 folds; the “resistance of clone compared with wt cells, value in parentheses” value is 149%; the “apoptosis, drug after DHMEQ pre-treatment” value turned out to be 40.5±3.1%; the “apoptosis, drug alone” value was determined as 12.4±2.5%.
`CC(C)(C)c1ccc(S(=O)(=O)/C=C/C#N)cc1` [Bay 11-7085]: the “sensitization of RR clones” value in the series on RR clones is listed as “sensitized”. Moreover, in series [1], the “sensitization to TRAIL-induced apoptosis” value was “significant augmentation of apoptosis and synergy was achieved”.
Take `CC(C)C[C@H](NC(=O)[C@H](Cc1ccccc1)NC(=O)c1cnccn1)B(O)O` [Bortezomib]: the “enhanced cytotoxicity of drugs by inhibitor” value with Ramos-RR1 is reported as 1.8-5.1 folds; in the series on Daudi-RR1, 1.7-3.3 folds. For the same molecule, the “sensitization of RR clones” value in the series on RR clones is recorded as “sensitized”. Also, the “chemosensitization to drug-induced apoptosis (taxol, vincristine, ADR, CDDP, VP16)” value with 2F7RR1 clone was “reversal of resistance; also recorded: significantly sensitized”. Besides, in series [1], the “sensitization to TRAIL-induced apoptosis” value was “significant augmentation of apoptosis and synergy was achieved”. For the same molecule, in series [2], the “effect on NF-kB, YY1 and Bcl-2 expression” value was “inhibition of NF-kB, YY1 and downregulated Bcl-2 expression”.
For `N.N.[Cl][Pt][Cl]` [CDDP], in the series on Ramos-RR1 (Ramos-RR1), the “resistance of clone compared with wt cells” value stood at 1.41 folds; the “resistance of clone compared with wt cells, value in parentheses” value stood at 120%; the “apoptosis, drug after DHMEQ pre-treatment” value was 61.2±2.1%; the “apoptosis, drug alone” value is on record as 19.0±0.7%. In the series on Daudi-RR1 (Daudi-RR1), the “resistance of clone compared with wt cells” value worked out at 1.95 folds; the “resistance of clone compared with wt cells, value in parentheses” value worked out at 149%; the “apoptosis, drug after DHMEQ pre-treatment” value was determined as 36.6±0.9%; the “apoptosis, drug alone” value was 25.7±3.1%.
In the case of `O=C1Nc2ccc(I)cc2/C1=C/c1cc(Br)c(O)c(Br)c1` [GW 5074], the “sensitization to drug-induced apoptosis” value in the series on Ramos and Daudi is given as “also sensitize the cells”.
With `C[S+]([O-])c1ccc(-c2nc(-c3ccncc3)c(-c3ccc(F)cc3)[nH]2)cc1` (centres unmarked) [SB 203580], in the series with RR clones, the “sensitization of RR clones” value is listed as “sensitized”.
Regarding `N#CC(=C(/N)Sc1ccccc1N)/C(C#N)=C(/N)Sc1ccccc1N` [UO126], the “sensitization to drug-induced apoptosis” value with Ramos and Daudi is given as “also sensitize the cells”.
On to `COc1cc([C@@H]2c3cc4c(cc3[C@@H](O[C@@H]3O[C@@H]5CO[C@@H](C)O[C@H]5[C@H](O)[C@H]3O)[C@H]3COC(=O)[C@H]23)OCO4)cc(OC)c1O` [VP-16], for which, in the series with Ramos-RR1 (Ramos-RR1), the “resistance of clone compared with wt cells” value is on record as 1.8 folds; the “resistance of clone compared with wt cells, value in parentheses” value is listed as 145%; the “apoptosis, drug after DHMEQ pre-treatment” value is 53.0±2.6%; the “apoptosis, drug alone” value was 10.3±1.1%. Further, in the series with Daudi-RR1 (Daudi-RR1), the “resistance of clone compared with wt cells” value is listed as 2.97 folds; the “resistance of clone compared with wt cells, value in parentheses” value is on record as 167%; the “apoptosis, drug after DHMEQ pre-treatment” value was 32.0±2.2%; the “apoptosis, drug alone” value worked out at 11.8±0.9%.
Turning to `CC(=O)O[C@H]1C(=O)[C@@]2(C)[C@H]([C@H](OC(=O)c3ccccc3)[C@]3(O)C[C@H](OC(=O)[C@H](O)[C@@H](NC(=O)c4ccccc4)c4ccccc4)C(C)=C1C3(C)C)[C@]1(OC(C)=O)CO[C@@H]1C[C@@H]2O` [paclitaxel], in the series on Ramos-RR1 (Ramos-RR1), the “resistance of clone compared with wt cells” value is recorded as 1.54 folds; the “resistance of clone compared with wt cells, value in parentheses” value is given as 136%; the “apoptosis, drug after DHMEQ pre-treatment” value turned out to be 46.5±2.3%; the “apoptosis, drug alone” value is on record as 20.4±3.0%. Also, the “apoptosis, paclitaxel alone” value in the series on Ramos-RR1 (Ramos-RR1, paclitaxel 10 nM 18 h) came to 8.42±2.1%. Also, the “apoptosis, paclitaxel alone” value in the series on Ramos wt cells (wt Ramos, paclitaxel 10 nM 18 h) was 13.6±1.3%. Also, in the series with Daudi-RR1 (Daudi-RR1), the “resistance of clone compared with wt cells” value turned out to be 1.63 folds; the “resistance of clone compared with wt cells, value in parentheses” value was 139%; the “apoptosis, drug after DHMEQ pre-treatment” value was found to be 42.0±1.9%; the “apoptosis, drug alone” value is 14.9±3.2%.
With `CC[C@]1(O)C[C@H]2CN(CCc3c([nH]c4ccccc34)[C@@](C(=O)OC)(c3cc4c(cc3OC)N(C=O)[C@H]3[C@@](O)(C(=O)OC)[C@H](OC(C)=O)[C@]5(CC)C=CCN6CC[C@]43[C@@H]65)C2)C1` [vincristine], in the series with Ramos-RR1 (Ramos-RR1), the “resistance of clone compared with wt cells” value came out at 1.42 folds; the “resistance of clone compared with wt cells, value in parentheses” value is given as 130%; the “apoptosis, drug after DHMEQ pre-treatment” value is 53.5±2.2%; the “apoptosis, drug alone” value is 15.3±1.1%. For the same molecule, in the series with Daudi-RR1 (Daudi-RR1), the “resistance of clone compared with wt cells” value worked out at 1.66 folds; the “resistance of clone compared with wt cells, value in parentheses” value was found to be 140%; the “apoptosis, drug after DHMEQ pre-treatment” value was 36.6±2.3%; the “apoptosis, drug alone” value worked out at 14.2±1.7%.
As to “cross-linked rituximab: 50 μg/ml anti-human immunoglobulin (hIg)+20 μg/ml rituximab”, the “higher threshold to cross-linked rituximab-mediated apoptosis vs wt” value in the series with Ramos-RR1 (Ramos-RR1) is 2.86 folds; in the series with Daudi-RR1 (Daudi-RR1), 2.56 folds. Besides, the apoptosis is 32.8±2.1% in the series with Daudi wt cells (50 μg/ml anti-hIg + 20 μg/ml rituximab, 24 h) and 29.2±2.4% in the series with Ramos wt cells (Ramos wt, 50 μg/ml anti-hIg + 20 μg/ml rituximab, 24 h).

B1: TRAIL: tumor necrosis factor (TNF)-related apoptosis-inducing ligand (protein, UniProt P50591 1-281, looked up)
Tumor necrosis factor ligand …: MAMMEVQGGPSLGQTCVLIVIFTVLLQSLCVAVTYVYFTNELKQMQDKYSKSGIACFLKEDDSYWDPNDEESMNSPCWQVKWQLRQLVRKMILRTSEETISTVQEKQQNISPLVRERGPQRVAAHITGTRGRSNTLSSPNSKNEKALGRKINSWESSRSGHSFLSNLHLRNGELVIHEKGFYYIYSQTYFRFQEEIKENTKNDKQMVQYIYKYTSYPDPILLMKSARNSCWSKDAEYGLYSIYQGGIFELKENDRIFVSVTNEHLIDMDHEASFFGAFLVG
With B1, the “sensitivity to TRAIL-mediated apoptosis” value in series [1] (wild type and RR1 cells, TRAIL 1-250 ng/ml, 18 h) is listed as “resistant”.
